The subject of experiment [1] is Escherichia coli. As to the kind of experiment: Minimum inhibitory concentration, series dilution test. Format: cell-based. The protocol: (§1) The minimum inhibitory concentration (MIC) of eugenol acetate was determined in the series dilution test against various bacteria.
Experiment [2] has as its system Fusobacterium nucleatum. The description is as above. Format: cell-based. As for the experimental part: as §1
The test system of experiment [3] is Porphyromonas gingivalis. The experiment is described as above. Format: cell-based. As for the experimental part: as §1
The subject of experiment [4] is Prevotella intermedia. The experiment is described as above. It counts as cell-based. As for the experimental part: as §1
Experiment [5] relates to Pseudomonas aeruginosa. The experiment is described as above. It counts as cell-based. The protocol:
as §1

For experiment [6], the system named is Staphylococcus aureus. The experiment is described as above. Format: cell-based. The protocol: as §1
The subject of experiment [7] is Streptococcus mutans. The experiment is described as above. It counts as cell-based. The protocol: as §1
The subject of experiment [8] is total number of germs in the oral saliva samples. The experiment in a line: Total number of germs in oral saliva samples. To be noted: 1,000 ppm. It counts as cell-based.
Experiment [9] relates to liquid medium inoculated with fresh morning saliva. As to the kind of experiment: In vitro test for reduction of bad breath (inoculated medium smelled by a panel of testers).

As for `C=CCc1ccc(OC(C)=O)c(OC)c1` [eugenol acetate, 4-allyl-2-methoxyphenyl acetate], the minimum inhibitory concentration (MIC) in experiment [1] is greater than 1000 µg/mL; in experiment [2] it was 500 µg/mL; in experiment [3], 1000 µg/mL; in experiment [4] it was 500 µg/mL; in experiment [5], greater than 1000 µg/mL; in [6], greater than 1000 µg/mL. In experiment [7], this compound yielded a minimum inhibitory concentration (MIC) greater than 1000 µg/mL. The Type entry is given as “no action up to 1,000 ppm” in experiment [1]; “bactericidal action” in experiment [2] (500 ppm); “bactericidal action” in [4] (500 ppm); “no action up to 1,000 ppm” in experiment [5]; “no action up to 1,000 ppm” in [6]; “no action up to 1,000 ppm” in experiment [7]. In experiment [8], the “reduction in respect of the total number of germs” value is recorded as “no significant reduction”. For the same compound, the “smell after the incubation time” value is recorded as “no smell” in experiment [9] (0.01% added to inoculated samples, 37 °C for some days) and “a changed intrinsic smell or a mixed smell was perceptible in some cases” in experiment [9] (significantly lower concentrations than 0.01%). Also, the “smell at sensory evaluation” value in experiment [9] (0.05% added to the inoculated medium only one hour before the sensory evaluation) is “unpleasant mixed smell of bad breath and a weak eugenol acetate note”. The same compound showed a minimum active concentration in experiment [9] (inoculated samples, no smell after incubation) of 0.01%.

For the origin of these results see patent publication US20080085246A1, “Use of Eugenol Acetate as an Agent Against Bad Breath” (SYMRISE GMBH & CO. KG, priority 2004, published 2008).
